According to the supplement of paper PMC10627819:

What was measured:
B. subtilis 168 [1] = assay: Bliss interaction score (quartile over a dose matrix) (fitness difference); higher = more antagonism (negative = synergy)
How it was run: (§1)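 The Bliss score was calculated by subtracting the expected fitness, the product of single-drug values, from the observed fitness. OD595 at entry into stationary phase, over the plate's robust no-drug mean and capped at 1, served as the fitness readout. Single-drug values were inferred from combination data, and scores are summarised by quartiles across technical, biological and donor/recipient replicates.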

S. aureus DSM 20231 = assay: as above
How it was run: as §1

S. aureus Newman = assay: as above
How it was run: as §1

S. pneumoniae D39V [2] = assay: as above
How it was run: as §1

B. subtilis 168 [3] = assay: fitness (endpoint OD595 vs no drug) (fraction); higher = more growth
How it was run: (§2)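 At 37 °C, bacteria in TSB, LB Lennox or CY were grown in 384-well plates from a starting OD595 of 0.01. OD595 was measured every 30 min for 14 h, with the first reading used as background. Fitness is the optical density at the switch to stationary phase as a fraction of the robust mean of no-drug control wells, capped at 1.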

S. pneumoniae D39V [4] = assay: as above
How it was run: as §2
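For Bliss interaction score (quartile over a dose matrix) in this document: first quartile when negative (synergy) and third quartile when positive (antagonism).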

CO/N=C(\C(=O)N[C@@H]1C(=O)N2C(C(=O)O)=C(COC(C)=O)CS[C@H]12)c1csc(N)n1 [Cefotaxime] + C[C@H]1COc2c(N3CCN(C)CC3)c(F)cc3c(=O)c(C(=O)O)cn1c23 [Levofloxacin]
Details	Bliss interaction score
B. subtilis 168 [1]	0.0631
S. aureus DSM 20231	-0.0398
S. aureus Newman	0.0336
S. pneumoniae D39V [2]	0.112

fitness, B. subtilis 168 [3], one replicate
Details	first compound 0.00775 µg/mL	first compound 0.0155 µg/mL	first compound 0.031 µg/mL	first compound 0.0625 µg/mL	first compound 0.125 µg/mL	first compound 0.25 µg/mL
partner 0.001 µg/mL	–	–	–	0.491	0.378	0.158
partner 0.002 µg/mL	0.874	0.691	0.57	0.382	0.311	0.158
partner 0.0039 µg/mL	0.834	0.683	0.565	0.418	0.306	0.128
partner 0.0078 µg/mL	0.812	0.659	0.496	–	–	–

Details	fitness
B. subtilis 168 [3], first compound 0.5 µg/mL, partner 0.0312 µg/mL	0.0483
B. subtilis 168 [3], first compound 0.5 µg/mL, partner 0.0625 µg/mL	0.0584
B. subtilis 168 [3], first compound 0.5 µg/mL, partner 0.125 µg/mL	0.0586
B. subtilis 168 [3], first compound 1 µg/mL, partner 0.0312 µg/mL	0.0414
B. subtilis 168 [3], first compound 1 µg/mL, partner 0.0625 µg/mL	0.0443
B. subtilis 168 [3], first compound 1 µg/mL, partner 0.125 µg/mL	0.0448
B. subtilis 168 [3], first compound 2 µg/mL, partner 0.0312 µg/mL	0.0456
B. subtilis 168 [3], first compound 2 µg/mL, partner 0.0625 µg/mL	0.0537
B. subtilis 168 [3], first compound 2 µg/mL, partner 0.125 µg/mL	0.0738
S. pneumoniae D39V [4], first compound 0.0018 µg/mL, partner 0.1725 µg/mL	0.986
S. pneumoniae D39V [4], first compound 0.0018 µg/mL, partner 0.2 µg/mL	0.966
S. pneumoniae D39V [4], first compound 0.0018 µg/mL, partner 0.345 µg/mL	0.956
S. pneumoniae D39V [4], first compound 0.0018 µg/mL, partner 0.4 µg/mL	0.925
S. pneumoniae D39V [4], first compound 0.0018 µg/mL, partner 0.69 µg/mL	0.701
S. pneumoniae D39V [4], first compound 0.0018 µg/mL, partner 0.8 µg/mL	0.632
S. pneumoniae D39V [4], first compound 0.0035 µg/mL, partner 0.1725 µg/mL	0.985
S. pneumoniae D39V [4], first compound 0.0035 µg/mL, partner 0.2 µg/mL	0.943
S. pneumoniae D39V [4], first compound 0.0035 µg/mL, partner 0.345 µg/mL	0.939
S. pneumoniae D39V [4], first compound 0.0035 µg/mL, partner 0.4 µg/mL	0.894
S. pneumoniae D39V [4], first compound 0.0035 µg/mL, partner 0.69 µg/mL	0.656
S. pneumoniae D39V [4], first compound 0.0035 µg/mL, partner 0.8 µg/mL	0.611
S. pneumoniae D39V [4], first compound 0.007 µg/mL, partner 0.1725 µg/mL	0.824
S. pneumoniae D39V [4], first compound 0.007 µg/mL, partner 0.2 µg/mL	0.922
S. pneumoniae D39V [4], first compound 0.007 µg/mL, partner 0.345 µg/mL	0.731
S. pneumoniae D39V [4], first compound 0.007 µg/mL, partner 0.4 µg/mL	0.846
S. pneumoniae D39V [4], first compound 0.007 µg/mL, partner 0.8 µg/mL	0.548

C[C@H]1c2cccc(O)c2C(=O)C2=C(O)[C@]3(O)C(=O)C(C(N)=O)=C(O)[C@@H](N(C)C)[C@@H]3[C@@H](O)[C@@H]21 [Doxycycline] + Cc1cc(NS(=O)(=O)c2ccc(N)cc2)no1 [Sulfamethoxazol]
Details	Bliss interaction score
B. subtilis 168 [1]	-0.0451
S. aureus DSM 20231	-0.0457
S. aureus Newman	-0.0242
S. pneumoniae D39V [2]	-0.0349

one replicate
Details	fitness
B. subtilis 168 [3], first compound 0.02 µg/mL, partner 0.5 µg/mL	0.829
B. subtilis 168 [3], first compound 0.04 µg/mL, partner 0.5 µg/mL	0.72
B. subtilis 168 [3], first compound 0.08 µg/mL, partner 0.5 µg/mL	0.456
S. pneumoniae D39V [4], first compound 0.003875 µg/mL, partner 1 µg/mL	≥ 1
S. pneumoniae D39V [4], first compound 0.003875 µg/mL, partner 2 µg/mL	≥ 1
S. pneumoniae D39V [4], first compound 0.003875 µg/mL, partner 4 µg/mL	≥ 1
S. pneumoniae D39V [4], first compound 0.00775 µg/mL, partner 1 µg/mL	0.961
S. pneumoniae D39V [4], first compound 0.00775 µg/mL, partner 2 µg/mL	0.967
S. pneumoniae D39V [4], first compound 0.00775 µg/mL, partner 4 µg/mL	0.963

fitness
Details	first compound 0.0155 µg/mL	first compound 0.02 µg/mL	first compound 0.031 µg/mL	first compound 0.04 µg/mL	first compound 0.062 µg/mL	first compound 0.08 µg/mL
B. subtilis 168 [3], partner 1 µg/mL	–	0.856	–	0.718	–	0.485
B. subtilis 168 [3], partner 2 µg/mL	–	0.818	–	0.702	–	0.424
B. subtilis 168 [3], partner 4 µg/mL	–	0.876	–	0.76	–	0.528
S. pneumoniae D39V [4], partner 1 µg/mL	0.929	–	0.848	–	0.755	–
S. pneumoniae D39V [4], partner 2 µg/mL	0.939	–	0.859	–	0.779	–
S. pneumoniae D39V [4], partner 4 µg/mL	0.897	–	0.81	–	0.77	–
